The source of these data is publication PMC8154156 (ACS Omega, 2021).

Each structure is given as a SMILES string.

In general, IC50 refers to the concentration that inhibits the measured activity by half. A higher IC50 goes with a need for much substance.

For experiment [1], the target named is T1, T5 exonuclease (T5E) (Escherichia phage T5, UniProt P06229).
T1 sequence (P06229 2-291): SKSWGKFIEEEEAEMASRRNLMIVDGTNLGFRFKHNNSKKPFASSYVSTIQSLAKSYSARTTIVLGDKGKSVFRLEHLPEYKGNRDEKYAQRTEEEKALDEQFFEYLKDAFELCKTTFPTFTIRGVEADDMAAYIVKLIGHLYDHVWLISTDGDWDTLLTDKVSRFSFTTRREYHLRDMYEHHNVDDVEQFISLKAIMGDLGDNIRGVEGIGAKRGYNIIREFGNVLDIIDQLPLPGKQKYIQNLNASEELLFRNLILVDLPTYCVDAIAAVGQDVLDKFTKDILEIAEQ
The experiment is described as follows: agarose gel, degradation of. Format: biochemical. As to conditions: high nucleotide concentrations.

In experiment [2] the target is T2, E. coli DNA topoisomerase I (EcTopI) (Escherichia coli, UniProt P06612).
T2 sequence (P06612 1-865): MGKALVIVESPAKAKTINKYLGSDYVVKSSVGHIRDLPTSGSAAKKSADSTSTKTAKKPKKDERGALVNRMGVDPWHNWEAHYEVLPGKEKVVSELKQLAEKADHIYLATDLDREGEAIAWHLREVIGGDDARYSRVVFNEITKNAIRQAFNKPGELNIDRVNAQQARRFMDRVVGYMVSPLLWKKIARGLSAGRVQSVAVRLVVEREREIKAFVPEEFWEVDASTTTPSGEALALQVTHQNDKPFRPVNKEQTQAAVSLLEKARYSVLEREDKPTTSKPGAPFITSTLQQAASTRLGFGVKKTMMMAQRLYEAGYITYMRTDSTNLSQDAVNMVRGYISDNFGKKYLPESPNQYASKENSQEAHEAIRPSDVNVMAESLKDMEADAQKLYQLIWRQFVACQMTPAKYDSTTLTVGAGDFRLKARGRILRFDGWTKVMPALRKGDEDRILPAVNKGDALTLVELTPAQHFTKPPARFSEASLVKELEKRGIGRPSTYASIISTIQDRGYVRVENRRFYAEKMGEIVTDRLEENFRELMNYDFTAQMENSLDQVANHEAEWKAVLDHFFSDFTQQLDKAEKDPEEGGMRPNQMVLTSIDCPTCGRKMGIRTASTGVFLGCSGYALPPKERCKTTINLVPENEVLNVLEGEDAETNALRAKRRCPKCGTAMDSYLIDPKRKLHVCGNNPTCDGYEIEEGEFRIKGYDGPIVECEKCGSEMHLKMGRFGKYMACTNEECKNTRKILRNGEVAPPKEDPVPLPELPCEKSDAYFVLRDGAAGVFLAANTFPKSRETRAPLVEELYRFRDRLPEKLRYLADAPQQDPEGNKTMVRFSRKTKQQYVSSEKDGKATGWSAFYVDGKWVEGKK
The experiment is described as follows: agarose gel DNA relaxation assay. Type of experiment: biochemical.

Experiment [3] concerns the target T1, T5 exonuclease (T5E). In words: flap endonuclease activity assay. Type of experiment: biochemical.
Experiment [4] has as its target variola DNA topoisomerase I (vTopI) (Variola virus human/India/Ind3/1967, UniProt P32989).

Sequence of variola DNA topoisomerase I (vTopI) (P32989 whole entry, looked up): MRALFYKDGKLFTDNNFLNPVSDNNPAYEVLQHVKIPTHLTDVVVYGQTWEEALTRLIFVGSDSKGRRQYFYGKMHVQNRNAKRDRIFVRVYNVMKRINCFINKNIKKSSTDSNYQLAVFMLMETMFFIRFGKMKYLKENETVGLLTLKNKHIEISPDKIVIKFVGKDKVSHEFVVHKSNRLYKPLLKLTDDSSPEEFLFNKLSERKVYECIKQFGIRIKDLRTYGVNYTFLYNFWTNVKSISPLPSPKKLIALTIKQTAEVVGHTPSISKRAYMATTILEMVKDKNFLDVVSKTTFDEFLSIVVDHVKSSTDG

Take `Nc1ncnc2c1ncn2[C@@H]1O[C@H](COP(=O)(O)OP(=O)(O)OP(=O)(O)O)[C@@H](O)[C@H]1O` [ATP]: the “agarose gel, degradation of (-) sc pAB1” value on T5 exonuclease (T5E) [1] was “high concentrations of ATP, GTP, CTP, and UTP inhibited the degradation of (−) sc pAB1”.
The same measure, in the same setting: for `Nc1ccn([C@@H]2O[C@H](COP(=O)(O)OP(=O)(O)OP(=O)(O)O)[C@@H](O)[C@H]2O)c(=O)n1` [CTP] the value was “high concentrations of ATP, GTP, CTP, and UTP inhibited the degradation of (−) sc pAB1”; for `Nc1nc2c(ncn2[C@@H]2O[C@H](COP(=O)(O)OP(=O)(O)OP(=O)(O)O)[C@@H](O)[C@H]2O)c(=O)[nH]1` [GTP], “high concentrations of ATP, GTP, CTP, and UTP inhibited the degradation of (−) sc pAB1”.
In the case of `O=C1C=C(NCCc2cc(Br)c(O)c(Br)c2)C(=O)c2ncccc21` [NSC668394], in experiment [2], the midpoint of inhibition, the IC50, lay at 8 ± 0.2 µM.
For `O=c1ccn([C@@H]2O[C@H](COP(=O)(O)OP(=O)(O)OP(=O)(O)O)[C@@H](O)[C@H]2O)c(=O)[nH]1` [UTP], at T5 exonuclease (T5E) [1], the “agarose gel, degradation of (-) sc pAB1” value is “high concentrations of ATP, GTP, CTP, and UTP inhibited the degradation of (−) sc pAB1”.
Regarding `Cc1ccc(C(=O)Nc2ccc(S(=O)(=O)O)c3cc(S(=O)(=O)O)cc(S(=O)(=O)O)c23)cc1NC(=O)c1cccc(NC(=O)Nc2cccc(C(=O)Nc3cc(C(=O)Nc4ccc(S(=O)(=O)O)c5cc(S(=O)(=O)O)cc(S(=O)(=O)O)c45)ccc3C)c2)c1` [suramin], the IC50 against T5 exonuclease (T5E) [3] turned out to be 22.6 µM. Also, the “T5 exonuclease-based fluorescence HTS at 20 μM” value in experiment [4] is “The only positive hit is the polynegatively charged suramin (Figure S6b)”.
